Target: HIV Reverse Transcriptase (HIV-RT) (Human immunodeficiency virus type 1 group M subtype B, UniProt P04585)
Assay: primer extension assay using HIV Reverse Transcriptase after dry-storage of the inhibitor, read out by FCS
Assay type: biochemical
Conditions: stored in a desiccator overnight at room-temperature, reaction 40°C, 2 min
Experimental: The method, according to claim 1 was used for a primer extension assay using HIV Reverse Transcriptase (HIV-RT). Precoating the assay plate: 1 µl aliquots of 0.1% (w/v) aqueous solution of HBC (2-hydroxypropyl-β-cyclodextrin) was pipetted into the wells of a nanotiter plate and subjected to a flow of nitrogen gas until all the solvent (water) was evaporated. […] As a control, a section of the nanotiter plate was not coated with HBC. The plate was subsequently loaded with 1 µl (1 mg/ml) of the HIV Reverse Transcriptase Inhibitor AZT (3'Azido-3'deoxythymidine) contained in 50 mM DMSO/ 10 mM NaCl. The solvent (DMSO/water) evaporated by exposure to a flow of nitrogen gas at room-temperature. As a control, some wells of the nanotiter plate (coated and non-coated) were not charged with AZT. The plates were stored in a desiocator overnight at room-temperature.
The primer extension assay was performed by pipetting 900 nanoliter of a reaction mix containing: 2 pmol TMR-lablled 20 base oligo deoxynucleotide anneald to a 200 base RNA-template (gag region of the HIV genome), 50 mM Tris-HCl pH 8.2, dissolved, 50 mM NaCl, 1 mM of each dNTP. The nanotiter plate was incubated at 40°C for 2 min and the extension reaction stopped by the addition of 100 nanoliter 0.5 M EDTA. The primer extension products were analyzed by FCS.
• 1. […]

Cc1cn([C@H]2C[C@H](N=[N+]=[N-])[C@@H](CO)O2)c(=O)[nH]c1=O [AZT, 3'Azido-3'deoxythymidine]
Primer extension (AZT 1 µl (1 mg/ml) dried in nanotiter plate wells not coated with HBC): only partially inhibited | Primer extension (AZT 1 µl (1 mg/ml) dried in nanotiter plate wells precoated with HBC (1 µl of 0.1% w/v)): inhibited

From EP0947820A2, “Method for sample preparation” (Evotec BioSystems GmbH, priority 1998, dated 1999)
